Measured values published in patent publication US20250145665A1, “MACROCYCLIC PEPTIDES USEFUL AS MODULATORS OF TNF ALPHA” (Bristol-Myers Squibb Company, priority 2023, published 2025).
Positions of bridges follow the written chain, without caps; N, C: chain ends. Non-standard residues stand in square brackets, D forms with d. Residues, ends and D or L forms follow the SMILES beside them. Bip(4'-NHCO-C6H4-3-CH2COOH) = N[C@@H](Cc1ccc(-c2ccc(NC(=O)c3cccc(CC(=O)O)c3)cc2)cc1)C(=O)O; dArg(ω-(3-HO-benzyl)) = N=C(NCCC[C@@H](N)C(=O)O)NCc1cccc(O)c1; Bip(4'-COOH) = N[C@@H](Cc1ccc(-c2ccc(C(=O)O)cc2)cc1)C(=O)O; Bip(4'-NHAc) = CC(=O)Nc1ccc(-c2ccc(C[C@H](N)C(=O)O)cc2)cc1; Phe(4-(3-Py)) = N[C@@H](Cc1ccc(-c2cccnc2)cc1)C(=O)O; Pro(cis-4-Ph) = O=C(O)[C@@H]1C[C@H](c2ccccc2)CN1; Ala(imidazol-2-yl) = N[C@@H](Cc1ncc[nH]1)C(=O)O; Ala(morpholin-4-yl) = N[C@@H](CN1CCOCC1)C(=O)O; Bip = N[C@@H](Cc1ccc(-c2ccccc2)cc1)C(=O)O; 2Pal = N[C@@H](Cc1ccccn1)C(=O)O; 2Thi = N[C@@H](Cc1cccs1)C(=O)O; Cha = N[C@@H](CC1CCCCC1)C(=O)O; Chg = N[C@H](C(=O)O)C1CCCCC1; Aze = O=C(O)[C@@H]1CCN1; Sar = CNCC(=O)O

What follows are compounds tested against TNFα (Homo sapiens, UniProt P01375) (assay: TNF-Induced HEK-Blue Assay). Settings: HEK-Blue-CD40L cells, NF-kB-driven secreted alkaline phosphatase reporter; TNFα 0.5 ng/ml; 18 h; read-out: TNF induced HEK-Blue assay IC50 value.
Type: cell-based

Sequence of TNFα (P01375 77-233 limits assumed): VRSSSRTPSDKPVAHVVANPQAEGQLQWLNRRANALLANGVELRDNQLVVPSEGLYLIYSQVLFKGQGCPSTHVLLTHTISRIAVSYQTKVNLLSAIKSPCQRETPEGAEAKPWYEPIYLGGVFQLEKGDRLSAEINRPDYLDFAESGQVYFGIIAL

IC50 [nM] | SMILES
50 to 200 | CC(C)C[C@@H]1NC(=O)[C@H](Cc2ncc[nH]2)NC(=O)[C@H](C(C)C)NC(=O)[C@@H]2CCCN2C(=O)[C@H](C(C)C)NC(=O)[C@@H](CCCNC(=N)NCc2cccc(O)c2)NC(=O)[C@H](CC(=O)O)NC(=O)[C@H](Cc2ccccn2)NC(=O)CN(C)C(=O)[C@H](Cc2ccc(-c3ccc(NC(=O)c4cccc(CC(=O)O)c4)cc3)cc2)NC(=O)[C@H](Cc2ccc(-c3ccc(C(=O)O)cc3)cc2)NC(=O)[C@H](CC2CCCCC2)NC(=O)CSC[C@@H](C(=O)NCC(N)=O)NC1=O [Example 553] ({CH2CO}-[Cha][Bip(4'-COOH)][Bip(4'-NHCO-C6H4-3-CH2COOH)][Sar][2Pal]D[dArg(ω-(3-HO-benzyl))]VPV[Ala(imidazol-2-yl)]LCG-NH2; thioether N-13)
< 50 | CC(C)C[C@@H]1NC(=O)[C@H](Cc2cccs2)NC(=O)[C@H](C(C)C)NC(=O)[C@@H]2CCCN2C(=O)[C@H](C(C)C)NC(=O)[C@@H](CCCNC(=N)N)NC(=O)[C@H](CC(=O)O)NC(=O)[C@H](Cc2ccccn2)NC(=O)CN(C)C(=O)[C@H](Cc2ccc(-c3ccc(NC(=O)c4cccc(CC(=O)O)c4)cc3)cc2)NC(=O)[C@H](Cc2ccc(-c3ccccc3)cc2)NC(=O)[C@H](CN2CCOCC2)NC(=O)CSC[C@@H](C(=O)NCC(N)=O)NC1=O [Example 608] ({CH2CO}-[Ala(morpholin-4-yl)][Bip][Bip(4'-NHCO-C6H4-3-CH2COOH)][Sar][2Pal]D[dR]VPV[2Thi]LCG-NH2; thioether N-13)
200 to 2000 | CC(C)C[C@@H]1NC(=O)[C@H](Cc2ccccc2)NC(=O)[C@H](C(C)C)NC(=O)[C@@H]2CCCN2C(=O)[C@H](C(C)C)NC(=O)[C@@H](CCCNC(=N)N)NC(=O)[C@H](CC(=O)O)NC(=O)[C@H](Cc2ccccc2)NC(=O)CN(C)C(=O)[C@H](Cc2ccc(-c3ccccc3)cc2)NC(=O)[C@H](Cc2ccc(-c3ccc(C(=O)O)cc3)cc2)NC(=O)[C@H](CN2CCOCC2)NC(=O)CSC[C@@H](C(=O)NCC(N)=O)NC1=O [Example 216] ({CH2CO}-[Ala(morpholin-4-yl)][Bip(4'-COOH)][Bip][Sar]FD[dR]VPVFLCG-NH2; thioether N-13)

The remaining lines, values behind:

SMILES | IC50 [nM]
CC(C)[C@@H]1NC(=O)[C@H](CCCNC(=N)N)NC(=O)[C@H](C(C)C)NC(=O)[C@@H]2CCCN2C(=O)[C@H](C(C)C)NC(=O)[C@H](CCCNC(=N)N)NC(=O)[C@H](CC(=O)O)NC(=O)[C@@H]2CCCN2C(=O)CN(C)C(=O)[C@H](Cc2ccc(-c3ccccc3)cc2)NC(=O)[C@H](Cc2ccc(-c3cccnc3)cc2)NC(=O)[C@H](CN2CCOCC2)NC(=O)CSC[C@@H](C(=O)NCC(N)=O)NC1=O [Example 88] ({CH2CO}-[Ala(morpholin-4-yl)][Phe(4-(3-Py))][Bip][Sar]PDRVPVRVCG-NH2; thioether N-13) | 200 to 2000
CC(C)C[C@@H]1NC(=O)[C@H](Cc2ccc(O)cc2)NC(=O)[C@H](C(C)C)NC(=O)[C@@H]2CCN2C(=O)[C@H](CC(N)=O)NC(=O)[C@@H](CCCNC(=N)N)NC(=O)[C@H](CC(=O)O)NC(=O)[C@H](Cc2ccc(O)cc2)NC(=O)CN(C)C(=O)[C@H](Cc2ccc(-c3ccccc3)cc2)NC(=O)[C@H](Cc2ccc(-c3ccc(C(=O)O)cc3)cc2)NC(=O)[C@H](CN2CCOCC2)NC(=O)CSC[C@@H](C(=O)NCC(N)=O)NC1=O [Example 145] ({CH2CO}-[Ala(morpholin-4-yl)][Bip(4'-COOH)][Bip][Sar]YD[dR]N[Aze]VYLCG-NH2; thioether N-13) | < 50
CC(C)C[C@@H]1NC(=O)[C@H](Cc2ccc(O)cc2)NC(=O)[C@H](C(C)C)NC(=O)[C@@H]2CCCN2C(=O)[C@H](C(C)C)NC(=O)[C@H](CCCNC(=N)N)NC(=O)[C@H](CC(=O)O)NC(=O)[C@@H]2CCCN2C(=O)CN(C)C(=O)[C@H](Cc2ccc(-c3ccccc3)cc2)NC(=O)[C@H](Cc2ccc(-c3ccc(C(=O)O)cc3)cc2)NC(=O)[C@H](CN2CCOCC2)NC(=O)CSC[C@@H](C(=O)NCC(N)=O)NC1=O [Example 124] ({CH2CO}-[Ala(morpholin-4-yl)][Bip(4'-COOH)][Bip][Sar]PDRVPVYLCG-NH2; thioether N-13) | 50 to 200
CC(C)C[C@@H]1NC(=O)[C@H](CCCNC(=N)N)NC(=O)[C@H](C(C)C)NC(=O)[C@@H]2CCCN2C(=O)[C@H](C(C)C)NC(=O)[C@H](CCCNC(=N)N)NC(=O)[C@H](CC(=O)O)NC(=O)[C@@H]2C[C@H](c3ccccc3)CN2C(=O)CN(C)C(=O)[C@H](Cc2ccc(-c3ccccc3)cc2)NC(=O)[C@H](Cc2ccc(-c3ccccc3)cc2)NC(=O)[C@H](CN2CCOCC2)NC(=O)CSC[C@@H](C(=O)NCC(N)=O)NC1=O [Example 96] ({CH2CO}-[Ala(morpholin-4-yl)][Bip][Bip][Sar][Pro(cis-4-Ph)]DRVPVRLCG-NH2; thioether N-13) | 50 to 200
CC(=O)Nc1ccc(-c2ccc(C[C@@H]3NC(=O)[C@H](Cc4ccc(-c5ccccc5)cc4)NC(=O)[C@H](CN4CCOCC4)NC(=O)CSC[C@@H](C(=O)NCC(N)=O)NC(=O)[C@H](CC(C)C)NC(=O)[C@H](Cc4ncc[nH]4)NC(=O)[C@H](C4CCCCC4)NC(=O)[C@@H]4CCCN4C(=O)[C@H](C(C)C)NC(=O)[C@@H](CCCNC(=N)N)NC(=O)[C@H](CC(=O)O)NC(=O)[C@H](Cc4cccs4)NC(=O)CN(C)C3=O)cc2)cc1 [Example 463] ({CH2CO}-[Ala(morpholin-4-yl)][Bip][Bip(4'-NHAc)][Sar][2Thi]D[dR]VP[Chg][Ala(imidazol-2-yl)]LCG-NH2; thioether N-13) | 50 to 200
